The source of these data is ChEMBL document CHEMBL1121945, “Nitrogen bridgehead compounds. 18. New antiallergic 4H-pyrido[1,2-a]pyrimidin-4-ones. 1” (J Med Chem, 1982).

Common to all, as to format: functional
For assay [1], the system named is Rattus norvegicus. Briefly: Inhibition of rat passive cutaneous anaphylaxis (PCA) reaction was determined after oral administration. The note with it: for ED50: read-out: ID50 (the source's name).
Assay [2] is filed under the species Rattus norvegicus. Briefly: Inhibition of histamine release from sensitized rat mast cells in vitro.
The subject of assay [3] is Rattus norvegicus. Briefly: Inhibition of rat passive cutaneous anaphylaxis (PCA) reaction after intravenous administration. The note with it: for ED50: Rattus norvegicus, iv, read-out: ID50 (the source's name).
Setting [4] is: Rattus norvegicus, Mast cell, read-out: EC50.

In the case of `CC1CC/C(=N\Nc2ccc(I)cc2)c2ncc(C(=O)O)c(=O)n21` (stereo unspecified), the ED50 in the assay on Rattus norvegicus [1] (Rattus norvegicus, po) was more than 1000 µmol/kg.
For the molecule `CC1CCC(=NNc2ccccc2C(=O)O)c2ncc(C(=O)O)c(=O)n21` (stereo in doubt; 57), in the assay listed under Rattus norvegicus [2] (mast cells), the EC50 was determined as 569 uM l-1. The molecule further registered an ID50 in the assay on Rattus norvegicus [3] of 0.5 µM/kg. In addition, in the assay on Rattus norvegicus [1] (Rattus norvegicus, po), the ED50 is more than 100 µmol/kg.
In the case of `CC1CC/C(=N\Nc2ccc(C(=O)O)cc2)c2ncc(C(=O)O)c(=O)n21` (stereo unspecified), the EC50 in the assay filed under Rattus norvegicus [2] (mast cells) is given as 1000 uM l-1. In the assay with Rattus norvegicus [3], the ED50 was found to be 7.6 µmol/kg.
With `CC1CC/C(=N\Nc2cccc(I)c2)c2ncc(C(=O)O)c(=O)n21` (stereo unspecified), the ED50 in the assay on Rattus norvegicus [1] (Rattus norvegicus, po) was more than 1000 µmol/kg.
On the same count and under the same terms, under `Cc1ccccc1N/N=C1\CCC(C)n2c1ncc(C(=O)O)c2=O` (stereo unspecified) stands more than 1000 µmol/kg.
Take `CC1CC/C(=N\Nc2ccccc2)c2ncc(CC(=O)O)c(=O)n21` (stereo unspecified): the EC50 in the assay filed under Rattus norvegicus [2] (mast cells) was found to be 430 uM l-1. The ED50 with Rattus norvegicus [3] came out at 100 µmol/kg.
As to `CC1CCCc2ncc(C(=O)O)c(=O)n21` (stereo unspecified), the ED50 in the assay with Rattus norvegicus [3] worked out at 240 µmol/kg.
On to `CC1CC/C(=N\Nc2ccc(Br)cc2)c2ncc(C(=O)O)c(=O)n21` (stereo unspecified), for which the EC50 in the assay filed under Rattus norvegicus [2] (setting [4]) worked out at 2 µM. Besides, the ED50 with Rattus norvegicus [3] is 0.8 µmol/kg; in the assay with Rattus norvegicus [1] (Rattus norvegicus, po) it was more than 100 µmol/kg.
For `CCOc1cccc(N/N=C2\CCC(C)n3c2ncc(C(=O)O)c3=O)c1` (stereo unspecified) the same measures were 4.7 µM, 0.2 µmol/kg and more than 100 µmol/kg.
As to `CCOc1ccccc1N/N=C1\CCC(C)n2c1ncc(C(=O)O)c2=O` (stereo unspecified), the ED50 in the assay on Rattus norvegicus [1] (Rattus norvegicus, po) was more than 1000 µmol/kg.
On to `CC1CCn2c(ncc(C(=O)O)c2=O)/C1=N/Nc1ccccc1` (stereo unspecified), for which, in the assay listed under Rattus norvegicus [2] (setting [4]), the EC50 is 5.4 µM. The ED50 was 32 µmol/kg in the assay with Rattus norvegicus [3] and more than 320 µmol/kg with Rattus norvegicus [1] (Rattus norvegicus, po).
On to `CC(=O)c1ccccc1N/N=C1\CCC(C)n2c1ncc(C(=O)O)c2=O` (stereo unspecified), for which, in the assay on Rattus norvegicus [1] (Rattus norvegicus, po), the ED50 was more than 1000 µmol/kg.
Regarding `C[C@H]1CC/C(=N\Nc2ccc(O)cc2)c2ncc(C(=O)O)c(=O)n21`, the EC50 in the assay listed under Rattus norvegicus [2] (setting [4]) was determined as 26.2 µM. The ED50 with Rattus norvegicus [3] was 110 µmol/kg; with Rattus norvegicus [1] (Rattus norvegicus, po), more than 100 µmol/kg.
As to `CC1CC/C(=N\Nc2ccccc2[N+](=O)[O-])c2ncc(C(=O)O)c(=O)n21` (stereo unspecified), the ED50 in the assay with Rattus norvegicus [1] (Rattus norvegicus, po) was more than 1000 µmol/kg.
With `CC1CC/C(=N\Nc2ccc(F)cc2)c2ncc(C(=O)O)c(=O)n21` (stereo unspecified), the EC50 in the assay filed under Rattus norvegicus [2] (setting [4]) worked out at 1.2 µM. The ED50 is 12.2 µmol/kg in the assay with Rattus norvegicus [3] and more than 1000 µmol/kg in the assay with Rattus norvegicus [1] (Rattus norvegicus, po).
As for `CC1CC/C(=N\Nc2ccccc2O)c2ncc(C(=O)O)c(=O)n21` (stereo unspecified), the EC50 in the assay filed under Rattus norvegicus [2] (mast cells) was 208 uM l-1. Further, the ED50 is 0.26 µmol/kg with Rattus norvegicus [3] and more than 100 µmol/kg with Rattus norvegicus [1] (Rattus norvegicus, po).
On to `CCOc1ccc(N/N=C2\CCC(C)n3c2ncc(C(=O)O)c3=O)cc1` (stereo unspecified), for which the EC50 in the assay listed under Rattus norvegicus [2] (setting [4]) turned out to be 17.6 µM. The ED50 with Rattus norvegicus [3] was 1.6 µmol/kg; in the assay on Rattus norvegicus [1] (Rattus norvegicus, po), more than 100 µmol/kg.
For the molecule `Cc1cccc(N/N=C2\CCC(C)n3c2ncc(C(=O)O)c3=O)c1` (stereo unspecified), in the assay listed under Rattus norvegicus [2] (setting [4]), the EC50 came out at 72.9 µM. The ED50 came out at 0.4 µmol/kg with Rattus norvegicus [3] and 72.5 µmol/kg in the assay on Rattus norvegicus [1] (Rattus norvegicus, po).
Turning to `CC1CC/C(=N\Nc2ccccc2Cl)c2ncc(C(=O)O)c(=O)n21` (stereo unspecified), the ED50 with Rattus norvegicus [1] (Rattus norvegicus, po) is more than 1000 µmol/kg.
As for `CNC(=O)c1ccc(N/N=C2\CCC(C)n3c2ncc(C(=O)O)c3=O)cc1` (stereo unspecified), in the assay listed under Rattus norvegicus [2] (setting [4]), the EC50 is 100 µM. Also, the ED50 in the assay with Rattus norvegicus [3] is 9.6 µmol/kg; in the assay on Rattus norvegicus [1] (Rattus norvegicus, po), more than 100 µmol/kg.
On the same counts, the results for `CC(=O)c1ccc(N/N=C2\CCC(C)n3c2ncc(C(=O)O)c3=O)cc1` (stereo unspecified) are 8.1 µM, 9.5 µmol/kg and more than 100 µmol/kg.
Consider `CC(=O)c1cccc(N/N=C2\CCC(C)n3c2ncc(C(=O)O)c3=O)c1` (stereo unspecified), for which the ED50 with Rattus norvegicus [1] (Rattus norvegicus, po) was more than 1000 µmol/kg.
Take `CC1CC/C(=N\Nc2cccc([N+](=O)[O-])c2)c2ncc(C(=O)O)c(=O)n21` (stereo unspecified): the ED50 in the assay on Rattus norvegicus [3] was 0.5 µmol/kg; with Rattus norvegicus [1], more than 100 µmol/kg.
Turning to `O=C(O)c1cnc2n(c1=O)CCC/C2=N\Nc1ccccc1`, in the assay listed under Rattus norvegicus [2] (setting [4]), the EC50 worked out at 2.9 µM. Also, the ED50 was 31.6 µmol/kg in the assay on Rattus norvegicus [3] and more than 100 µmol/kg in the assay with Rattus norvegicus [1] (Rattus norvegicus, po).
As to `CC1CC/C(=N\Nc2ccccc2)c2ncc(C(=O)NN)c(=O)n21` (stereo unspecified), the ED50 with Rattus norvegicus [1] (Rattus norvegicus, po) is more than 1000 µmol/kg.
Regarding `CC1CCC(=NNc2ccccc2)c2ncc(C(=O)O)c(=O)n21` (stereo unspecified), the EC50 in the assay listed under Rattus norvegicus [2] (setting [4]) worked out at 2.2 µM. For the same molecule, the ED50 was determined as 0.6 µmol/kg in the assay with Rattus norvegicus [3] and 1.2 µmol/kg in the assay with Rattus norvegicus [1] (Rattus norvegicus, po).
On the same counts, the results for `Cc1ccc(N/N=C2\CCC(C)n3c2ncc(C(=O)O)c3=O)cc1` (stereo unspecified) are 0.28 µM, 1.3 µmol/kg and more than 1000 µmol/kg.
For the molecule `CC1CC/C(=N\Nc2ccc(C(=O)O)cc2)c2nccc(=O)n21` (stereo unspecified), the EC50 in the assay filed under Rattus norvegicus [2] (mast cells) is reported as 450 uM l-1. Further, the ED50 is more than 100 µmol/kg in the assay with Rattus norvegicus [3] and more than 100 µmol/kg in the assay on Rattus norvegicus [1] (Rattus norvegicus, po).
As for `CC1CC/C(=N\Nc2cccc(C(=O)O)c2)c2nccc(=O)n21` (stereo unspecified), the EC50 in the assay filed under Rattus norvegicus [2] (mast cells) was 655 uM l-1. The ED50 with Rattus norvegicus [3] is more than 100 µmol/kg; with Rattus norvegicus [1] (Rattus norvegicus, po), more than 100 µmol/kg.
As to `C[C@H]1CCC(=NNc2ccccc2)c2ncc(C(=O)O)c(=O)n21` (single isomer, unassigned; (+)), the EC50 in the assay filed under Rattus norvegicus [2] (mast cells, read-out: EC50) turned out to be 0.6 µM. Also, the ID50 in the assay with Rattus norvegicus [3] was found to be 0.3 µM/kg; with Rattus norvegicus [1], 1 µM/kg.
Regarding `CC1CC/C(=N\Nc2ccccc2I)c2ncc(C(=O)O)c(=O)n21` (stereo unspecified), in the assay on Rattus norvegicus [1] (Rattus norvegicus, po), the ED50 is more than 1000 µmol/kg.
For `CCOc1ccc(N/N=C2\CC[C@@H](C)n3c2ncc(C(=O)O)c3=O)cc1`, the EC50 in the assay filed under Rattus norvegicus [2] (setting [4]) was found to be 1 µM. In addition, the ED50 is 0.2 µmol/kg in the assay on Rattus norvegicus [3] and more than 100 µmol/kg in the assay on Rattus norvegicus [1] (Rattus norvegicus, po).
